From US11371097B2, “Articles for diagnosis of liver fibrosis” (THE GOVERNMENT OF THE UNITED STATES, as represented by THE …, priority 2015, dated 2022)
Where “and” joins values, the source holds several entries; their conditions need not be identical. Equal entries are not always repeated.

Assays:
[1] = tested on: 67 genes on the fibrosis gene panel; experiment: Multiplexed fibrosis gene panel (QuantiGene 2.0 Plex / Bioplex) on liver RNA; settings: liver RNA, individual animals; Carbon Tetrachloride 200, Bromobenzene 785, Dexamethasone 1 mg/kg; on Differential Expression of Anxa2: unit not given here; on Differential Expression of Arrb1: unit not given here; on Differential Expression of CP: unit not given here; on Differential Expression of Ctgf: unit not given here; on Differential Expression of Cxcl12: unit not given here; on Differential Expression of Fam102b: unit not given here; on Differential Expression of Fam105a: unit not given here; on Differential Expression of Fbn1: unit not given here
[2] = tested on: 67 genes on the fibrosis gene panel; settings: rat, in vivo; on Differential Expression of Anxa2: unit not given here; on Differential Expression of Arrb1: unit not given here; on Differential Expression of CP: unit not given here; on Differential Expression of Ctgf: unit not given here; on Differential Expression of Cxcl12: unit not given here; on Differential Expression of Fam102b: unit not given here; on Differential Expression of Fam105a: unit not given here; on Differential Expression of Fbn1: unit not given here

C[C@@H]1C[C@H]2[C@@H]3CCC4=CC(=O)C=C[C@]4(C)[C@@]3(F)[C@@H](O)C[C@]2(C)[C@@]1(O)C(=O)CO [dexamethasone]
Differential Expression of A2m [1]: −1.370 and −0.649 and −0.615 and −0.252 | Differential Expression of Angptl3 [1]: 0.029 and −0.467 and −0.241 | Differential Expression of Anxa2 [1]: 0.519 and 0.194 and −0.132 and 0.293 | Differential Expression of Apoc [1]: −0.250 and −0.067 and −0.469 and −0.542 | Differential Expression of Arf6 [1]: −0.268 and −0.346 and −0.401 and 0.005 | Differential Expression of Arpc1b [1]: −1.391 and −2.770 and −5.994 and −0.172 | Differential Expression of Arrb1 [1]: −0.840 and −2.152 and −3.043 and 0.703 | Differential Expression of C1qb [1]: −0.174 and −0.655 and −0.257 and −0.222 | Differential Expression of CD9 [1]: 0.155 and −0.656 and −0.280 and 0.387 | Differential Expression of CD53 [1]: −0.716 and −3.901 and −5.862 and 0.006 | Differential Expression of CP [1]: −0.134 and −0.634 and −0.952 and −0.558 | Differential Expression of Capg [1]: −0.558 and −0.744 and −0.772 and −0.404 | Differential Expression of Ccl2 [1]: −0.272 and 0.250 and 0.043 and 1.019 | Differential Expression of Col1a1 [1]: −4.640 and −3.775 and −5.473 and −0.928 | Differential Expression of Col1a2 [1]: −0.960 and −1.057 and −2.208 and −1.081 | Differential Expression of Col4a1 [1]: −1.039 and −1.035 and −1.397 and −0.880 | Differential Expression of Col5a2 [1]: −0.407 and −0.910 and −2.382 and 0.311 | Differential Expression of Ctgf [1]: −0.755 and 0.747 and −0.663 and 0.405 | Differential Expression of Cxcl1 [1]: 0.104 and 1.127 and 0.364 and 0.097 | Differential Expression of Cxcl12 [1]: −1.808 and −3.742 and −2.144 and −1.869 | Differential Expression of Cxcl16 [1]: −0.537 and −4.885 and 0.714 | Differential Expression of Cyba [1]: −0.998 and −1.793 and −1.244 and −0.956 | Differential Expression of Dsc2 [1]: −0.209 and −0.593 and −0.466 and −0.248 | Differential Expression of Fam102b [1]: −0.462 and −0.124 and −0.822 and −0.262 | Differential Expression of Fam105a [1]: −0.295 and 0.195 and −0.809 and −0.294 | Differential Expression of Fbn1 [1]: −1.213 and −1.784 and −2.160 and −1.736 | Differential Expression of Fn1 [1]: 0.397 and 0.181 and −0.334 and −0.170 | Differential Expression of Fstl1 [1]: −1.085 and −1.346 and −1.183 and −0.931 | Differential Expression of Fxyd5 [1]: −0.247 and −0.412 and −0.305 | Differential Expression of Gpnmb [1]: −0.018 and 1.304 and 0.968 and 1.447 | Differential Expression of Igfals [1]: −0.678 and −2.820 and −1.013 and −1.310 | Differential Expression of Igfbp1 [1]: 1.132 and 1.740 and 0.780 and 0.489 | Differential Expression of Igfbp2 [1]: −0.258 and −0.949 and −1.156 and −0.041 | Differential Expression of Igfbp3 [1]: −1.125 and −1.454 and −2.523 and −1.663 | Differential Expression of Itga1 [1]: −2.088 and −3.379 and −2.849 and −1.903 | Differential Expression of Itgb2 [1]: −1.330 and −2.265 and −1.982 and −0.802 | Differential Expression of Lame2 [1]: −0.132 and 0.260 and −1.038 and 0.536 | Differential Expression of Lbp [1]: 0.344 and −0.042 and 0.261 and −0.020 | Differential Expression of Len2 [1]: −0.470 and 0.418 and 0.883 and 0.535 | Differential Expression of Lgals1 [1]: 0.458 and −4.140 and −0.346 and 0.583 | Differential Expression of Lgals3 [1]: 0.011 and 0.320 and 0.370 and 0.526 | Differential Expression of Lgals3bp [1]: −1.477 and −0.782 and −1.281 and −0.669 | Differential Expression of Lox [1]: 0.278 and 0.412 and −0.164 | Differential Expression of Lrp1 [1]: −0.206 and −0.631 and −0.863 and −0.371 | Differential Expression of Lum [1]: 0.593 and 0.401 and −0.997 and −0.078 | Differential Expression of Mmp2 [1]: −0.245 and −1.273 and −0.990 and −0.583 | Differential Expression of Nid1 [1]: −1.271 (2×) and −1.374 and −1.155 | Differential Expression of Pcolce [1]: −1.293 and −1.196 and −1.572 and −0.246 | Differential Expression of Pkm2 [1]: −0.668 and −0.611 and −0.735 and −0.472 | Differential Expression of Plat [1]: 0.103 and 0.075 and −0.461 and −0.335 | Differential Expression of Plau [1]: −0.719 and −2.088 and −1.424 and −0.095 | Differential Expression of Plod2 [1]: −0.065 and 0.269 and −0.568 and −0.077 | Differential Expression of RT1-DMa [1]: 3.152 and 2.497 and 3.371 and 2.417 | Differential Expression of RT1-Da [1]: −4.927 and −7.563 and −4.272 and −3.443 | Differential Expression of S100A6 [1]: 0.650 and −0.047 and 0.843 and 0.695 | Differential Expression of S100A11 [1]: −0.377 and −0.570 and −0.732 and −0.465 | Differential Expression of Serpine1 [1]: 0.251 and 1.560 and 0.110 and 0.038 | Differential Expression of Serping1 [1]: 0.154 and 0.026 and −0.228 and 0.065 | Differential Expression of Slc25a24 [1]: −0.387 and −0.565 and −0.427 | Differential Expression of Sod2 [1]: −0.398 and −0.428 and −0.371 and −0.367 | Differential Expression of TagIn2 [1]: −0.486 and −0.918 and −0.563 and −0.566 | Differential Expression of Tgfb1 [1]: −1.193 and −1.526 and −1.328 and −1.429 | Differential Expression of Timp1 [1]: 0.026 and 0.464 and −0.134 and 1.004 | Differential Expression of Vhl [1]: −0.300 and −1.037 and −0.787 and 0.504 | Differential Expression of Vim [1]: −0.856 and −1.292 and −1.277 | Differential Expression of Vtn [1]: −0.111 and −0.294 and −0.579 and −0.572 | Panel genes downregulated (and upregulated in fibrogenic chemical-dose groups) [2]: 12 genes | Pcolce expression levels compared with fibrogenic compounds [2]: anti-correlated with corresponding gene expression levels induced by 4,4′-methylenedianiline and allyl alcohol
